In brackets after ≈: the same amount, converted by molar mass. Like-named read-outs stand apart in the source and are kept apart here. Positions of bridges follow the written chain, without caps; N, C: chain ends. Non-standard residues stand in square brackets, D forms with d. Residues, ends and D or L forms follow the SMILES beside them. *: point of attachment. Acetyl(1-adamantyl) = O=C(CC12CC3CC(CC(C3)C1)C2)*; Lauroyl = CCCCCCCCCCCC(=O)*; Dab = NCC[C@H](N)C(=O)O
Tests used:
MSSE CANWARD-2008 81388 = format: cell-based, Staphylococcus epidermidis; conditions: MSSE CANWARD-2008 81388 (methicillin-susceptible Staphylococcus epidermidis)
From the text: (§1) Bacterial strains were either obtained from the American Type Culture Collection (ATCC), Canadian National Intensive Care Unit (CAN-ICU) surveillance study or the Canadian Ward Surveillance (CANWARD) study. Strains from both CAN-ICU and CANWARD are isolates recovered from patients diagnosed with a presumed infectious disease that were admitted in a participating medical center across Canada. Efflux-deficient strain PAO200 (lacking MexAB-OprM efflux system) and PA0750 (lacking MexAB-OprM, MexCD-OprJ, MexEF-OprN, MexJK and MexXY efflux systems, and the outer membrane protein OpmH) were kindly gifted by Dr. Ayush Kumar (University of Manitoba).
(§2) The in vitro antibacterial activity of the compounds studied were assessed by broth microdilution susceptibility testing following CLSI guidelines. Bacterial cultures were grown overnight prior to the assay. The overnight grown cultures were diluted in saline to 0.5 McFarland turbidity, followed by 1:50 dilution in Mueller-Hinton broth (MHB) for inoculation to a final concentration of approximately 5×10^5 colony forming units/mL. Testing was performed on 96-well plates where the tested compounds were 2-fold serially diluted in MHB and incubated with equal volumes of bacterial inoculum at 37° C. for 18 h. […] Wells containing MHB with or without bacterial cells were used as positive or negative control, respectively.

E. coli 107115 = format: cell-based, Escherichia coli
From the text: as §1, §2

E. coli ATCC 25922 = format: cell-based, Escherichia coli
From the text: as §1, §2

E. coli CAN-ICU 61714 = format: cell-based, Escherichia coli
From the text: as §1, §2

E. coli CAN-ICU 63074 = format: cell-based, Escherichia coli
From the text: as §1, §2

P. aeruginosa ATCC 27853 = format: cell-based, Pseudomonas aeruginosa; conditions: P. aeruginosa ATCC 27853
From the text: as §1, §2

[1] = test system: P. aeruginosa CAN-ICU 62308; format: cell-based, Pseudomonas aeruginosa
From the text: as §1, §2

P. aeruginosa PA095 = format: cell-based, Pseudomonas aeruginosa
From the text: as §1, §2

P. aeruginosa PA100036 = format: cell-based, Pseudomonas aeruginosa
From the text: as §1, §2

P. aeruginosa PA101885 = format: cell-based, Pseudomonas aeruginosa
From the text: as §1, §2

[2] = test system: P. aeruginosa PA259-96918; format: cell-based, Pseudomonas aeruginosa
From the text: as §1, §2

[3] = test system: P. aeruginosa PA260-97103; format: cell-based, Pseudomonas aeruginosa
From the text: as §1, §2

[4] = test system: P. aeruginosa PA262-101856; format: cell-based, Pseudomonas aeruginosa
From the text: as §1, §2

[5] = test system: P. aeruginosa PA264-104354; format: cell-based, Pseudomonas aeruginosa
From the text: as §1, §2

P. aeruginosa PAO1 = format: cell-based, Pseudomonas aeruginosa
From the text: as §1, §2

K. pneumoniae 116381 = format: cell-based, Klebsiella pneumoniae; conditions: K. pneumoniae 116381
From the text: as §1, §2

K. pneumoniae ATCC 13883 = format: cell-based, Klebsiella pneumoniae; conditions: K. pneumoniae ATCC 13883
From the text: as §1, §2

E. cloacae 117029 = format: cell-based, Enterobacter cloacae
From the text: as §1, §2

A. baumannii 92247 = format: cell-based, Acinetobacter baumannii; conditions: 92247
Protocol: (§3) We then addressed the possibility for the dilipid polymyxins to display enhanced antibacterial activity against colistin-resistant Gram-negative pathogens. […] The extended hydrophobic region of the dilipid polymyxin may provide additional hydrophobic interactions to the outer membrane of colistin-resistant organisms. Eight MDR colistin-resistant Gram-negative bacterial isolates were tested, including two E. coli isolates harboring the mcr-1 plasmid-encoded polymyxin resistance gene. We found no difference between the antibacterial activity of dilipid polymyxins and colistin against colistin-resistant Gram-negative bacteria (Table 3).
as §1, §2

K. pneumoniae 113250 = format: cell-based, Klebsiella pneumoniae; conditions: 113250
Protocol: as §3, §1, §2

K. pneumoniae 113254 = format: cell-based, Klebsiella pneumoniae; conditions: 113254
Protocol: as §3, §1, §2

P. aeruginosa PAO200 = conditions: P. aeruginosa PAO200, efflux-deficient strain that lacks the MexAB-OprM pump
From the text: (§4) To our curiosity, we explored whether efflux can affect the activity of polymyxins. It is widely accepted that polymyxins disrupt Gram-negative bacterial membranes that result to intracellular component leakage and bacterial cell death. However, for this to occur requires the agent to reach the periplasmic space to interact and disrupt the inner membrane. Active efflux may potentially expel polymyxins out of the periplasm, effectively reducing its periplasmic and intracellular concentrations. To study the effect of efflux on polymyxins in Gram-negative pathogens, we used P. aeruginosa as they inherently overexpress efflux systems such as MexAB-OprM, MexCD-OprJ and MexXY-OprM. Moreover, antibiotic substrates for these efflux systems are mostly characterized. We evaluated and compared the activity of the dilipid polymyxins, colistin and PMBN against wild-type PAO1 and two efflux-deficient P. aeruginosa isogenic mutants (Table 5). The strain PAO200 lacks the MexAB-OprM efflux system while strain PAO750 lacks five clinically-relevant pumps (MexAB-OprM, MexCD-OprJ, MexEF-OprN, MexJK and MexXY) and outer membrane protein OpmH.
as §1, §2

P. aeruginosa PAO750 = conditions: P. aeruginosa PAO750, efflux-deficient strain that lacks five pumps and OpmH
From the text: as §4, §1, §2

`CCCCCCCCCCCC(=O)NCC[C@H](NC(=O)CCCCCCCCCCC)C(=O)N[C@H](C(=O)N[C@@H](CCN)C(=O)N[C@H]1CCNC(=O)[C@H]([C@@H](C)O)NC(=O)[C@H](CCN)NC(=O)[C@H](CCN)NC(=O)[C@H](CC(C)C)NC(=O)[C@@H](Cc2ccccc2)NC(=O)[C@H](CCN)NC1=O)[C@@H](C)O` [Compound 3, Didodecanoic Acid (Di-C12) Polymyxin] (Lauroyl-[Dab](Lauroyl)T[Dab][Dab][Dab][dF]L[Dab][Dab]T; lactam 4-C) gave an MIC (MSSE CANWARD-2008 81388) of 64 µg/mL (≈ 44.8 µM), an MIC (E. coli 107115; 107115) of 8 µg/mL (≈ 5.6 µM) and an MIC (E. coli ATCC 25922; ATCC 25922) of 16 µg/mL (≈ 11.2 µM). It also gave an MIC (E. coli CAN-ICU 61714; CAN-ICU 61714) of 128 µg/mL (≈ 89.6 µM), an MIC (E. coli CAN-ICU 63074; CAN-ICU 63074) of 64 µg/mL (≈ 44.8 µM) and an MIC (P. aeruginosa ATCC 27853) of over 128 µg/mL. The MIC ([1]; CAN-ICU 62308) was 64 µg/mL (≈ 44.8 µM), the MIC (P. aeruginosa PA095; PA095) was 8 µg/mL (≈ 5.6 µM) and the MIC (P. aeruginosa PA100036; PA100036) was 32 µg/mL (≈ 22.4 µM). The MIC (P. aeruginosa PA101885; PA101885) was 32 µg/mL (≈ 22.4 µM), the MIC ([2]; PA259-96918) was 16 µg/mL (≈ 11.2 µM) and the MIC ([3]; PA260-97103) was 32 µg/mL (≈ 22.4 µM). The MIC ([4]; PA262-101856) was 32 µg/mL (≈ 22.4 µM), the MIC ([5]; PA264-104354) was 64 µg/mL (≈ 44.8 µM) and the MIC (P. aeruginosa PAO1; PAO1) was 32 µg/mL (≈ 22.4 µM). The MIC (K. pneumoniae 116381) was over 128 µg/mL, the MIC (K. pneumoniae ATCC 13883) was over 128 µg/mL and the MIC (E. cloacae 117029; 117029) was 16 µg/mL (≈ 11.2 µM). It also gave an MIC (A. baumannii 92247) of 32 µg/mL (≈ 22.4 µM), an MIC (K. pneumoniae 113250) of over 64 µg/mL and an MIC (K. pneumoniae 113254) of over 64 µg/mL. The MIC (P. aeruginosa PAO200) was 32 µg/mL (≈ 22.4 µM) and the MIC (P. aeruginosa PAO750) was 32 µg/mL (≈ 22.4 µM).

`CC(C)C[C@@H]1NC(=O)[C@@H](Cc2ccccc2)NC(=O)[C@H](CCN)NC(=O)[C@@H](NC(=O)[C@H](CCN)NC(=O)[C@@H](NC(=O)[C@H](CCNC(=O)CC23CC4CC(CC(C4)C2)C3)NC(=O)CC23CC4CC(CC(C4)C2)C3)[C@@H](C)O)CCNC(=O)[C@H]([C@@H](C)O)NC(=O)[C@H](CCN)NC(=O)[C@H](CCN)NC1=O` [Compound 4, Diadamantane Acetic Acid (Di-Adamantyl) Polymyxin] ({Acetyl(1-adamantyl)}-[Dab](Acetyl(1-adamantyl))T[Dab][Dab][Dab][dF]L[Dab][Dab]T; lactam 4-C) showed an MIC (MSSE CANWARD-2008 81388) of 16 µg/mL (≈ 11.3 µM), an MIC (E. coli 107115; E. coli 107115) of 4 µg/mL (≈ 2.83 µM) and an MIC (E. coli ATCC 25922; E. coli ATCC 25922) of 4 µg/mL (≈ 2.83 µM). For the same compound, the MIC (E. coli CAN-ICU 61714; E. coli CAN-ICU 61714) was 64 µg/mL (≈ 45.2 µM), the MIC (E. coli CAN-ICU 63074; E. coli CAN-ICU 63074) was 64 µg/mL (≈ 45.2 µM) and the MIC (P. aeruginosa ATCC 27853) was 16 µg/mL (≈ 11.3 µM). The MIC ([1]; P. aeruginosa CAN-ICU 62308) was 16 µg/mL (≈ 11.3 µM), the MIC (P. aeruginosa PA095; P. aeruginosa PA095) was 4 µg/mL (≈ 2.83 µM) and the MIC (P. aeruginosa PA100036; P. aeruginosa PA100036) was 8 µg/mL (≈ 5.65 µM). The MIC (P. aeruginosa PA101885; P. aeruginosa PA101885) was 8 µg/mL (≈ 5.65 µM), the MIC ([2]; P. aeruginosa PA259-96918) was 8 µg/mL (≈ 5.65 µM) and the MIC ([3]; P. aeruginosa PA260-97103) was 4 µg/mL (≈ 2.83 µM). It also gave an MIC ([4]; P. aeruginosa PA262-101856) of 8 µg/mL (≈ 5.65 µM), an MIC ([5]; P. aeruginosa PA264-104354) of 8 µg/mL (≈ 5.65 µM) and an MIC (P. aeruginosa PAO1; P. aeruginosa PAO1 (wild type)) of 4 µg/mL (≈ 2.83 µM). For the same compound, the MIC (K. pneumoniae 116381) was over 128 µg/mL, the MIC (K. pneumoniae ATCC 13883) was over 128 µg/mL and the MIC (E. cloacae 117029; E. cloacae 117029) was 4 µg/mL (≈ 2.83 µM). The MIC (A. baumannii 92247) was 8 µg/mL (≈ 5.65 µM), the MIC (K. pneumoniae 113250) was over 64 µg/mL and the MIC (K. pneumoniae 113254) was over 64 µg/mL. For the same compound, the MIC (P. aeruginosa PAO200) was 4 µg/mL (≈ 2.83 µM) and the MIC (P. aeruginosa PAO750) was 8 µg/mL (≈ 5.65 µM).

Source: patent US20210261621A1, “Preparation of Dilipid Polymixins and Use Thereof as Antimicrobial Adjuvants” (priority 2018, published 2021)
